Measured values as given in patent publication US7276514B2, “Pyrroloquinoline quinone drugs for treatment of cardiac injury and methods of use thereof” (Charitable Leadership Foundation - Medical Technology …, priority 2002, dated 2007).
Entries after “also recorded” stand apart in the source; their conditions may differ.

Columns and labels:
[1] = test system: adult mouse cardiac myocytes; assay: Toxicity of PQQ to cultured adult mouse cardiac myocytes under normoxic conditions; type: cell-based; conditions: 100 μM PQQ
Description: The invention encompasses methods of treating or preventing cardiac injury caused by hypoxia or ischemia in a subject, wherein PQQ is administered to a subject in need thereof, such that hypoxia or ischemic-related injury is prevented or decreased. In certain embodiments, the PQQ is administered at a concentration of less than about 10 μM. In other embodiments, the PQQ is administered at a concentration in the range of about 10 nM to about 10 μM, about 10 nM to about 1 μM, 100 nM to about 10 μM, and 100 nM to about 500 nM. In still other embodiments of the invention, the PQQ is administered at a concentration such that the concentration of PQQ at the site of cardiac tissue is in the range of 10 nM to about 10 μM. PQQ may also be administered as a function of the subject's body weight. In some embodiments of the invention, PQQ is administered at a concentration of between about 1 μg/kg to 1 g/kg of a subject's body weight, including less than 500 mg/kg, 250 mg/kg, 100 mg/kg, 10 mg/kg, 5 mg/kg, 2 mg/kg, 1 mg/kg, 500 μg/kg, 250 μg/kg, 100 μg/kg, 10 μg/kg, 5 μg/kg, 2 μg/kg or 1 μg/kg. […]
An in vitro model of cultured adult cardiac mouse myocytes was developed to study cardioprotection by PQQ. […] These cells can be used readily for determination of cell viability by trypan blue exclusion, and for biochemical, immunochemical, and molecular studies. […]

[2] = test system: adult cardiac mouse myocytes; assay: Cultured adult cardiac mouse myocytes exposed to severe hypoxia, viability by trypan blue exclusion; type: cell-based
Description: An in vitro model of cultured adult cardiac mouse myocytes was developed to study cardioprotection by PQQ. These cells are viable in culture for up to 48 hours at a physiologic pH and consist of >90% rod-shaped cells. These cells can be used readily for determination of cell viability by trypan blue exclusion, and for biochemical, immunochemical, and molecular studies. In this model, approximately 35% of the cells die when exposed to 0% oxygen in a hypoxia chamber for 2-3 hours. […] A higher concentration of PQQ (100 μM) is highly toxic under normoxic conditions as evidenced by 100% cell death.

isolated mouse heart [3] = assay: Ex vivo isolated mouse heart (Langendorff), 20 min ischemia followed by 30 min reperfusion; conditions: 100 nM PQQ given at the time of onset of reperfusion
cardiac myocytes = assay: Cultured cardiac myocytes subjected to oxidative stress by H2O2; type: cell-based
Description: Cultured cardiac myocytes are subjected to oxidative stress by in vitro administration of H2O2. Two studies are done, one in which PQQ is added in concentrations between 10 nM and less than 10 μM to cardiac myocytes, after which H2O2 is added. In the other study, cardiac myocytes are subjected to insult in vitro admininstration of H2O2 for two hours, after which PQQ is added in concentrations between 10 nM and less than 10 μM. In both studies, PQQ is found to be protective.

isolated mouse heart [4] = assay: Ex vivo isolated mouse heart (Langendorff), 20 min ischemia followed by 30 min reperfusion
Description: Ex vivo studies were performed using an isolated mouse heart preparation employing the Langendorff technique. In this approach, the heart is removed and mounted on a perfusion apparatus in which drugs can be given via an aortic cannula. The heart is paced at a constant rate, and left ventricular developed pressure [LVDP; left ventricular systolic pressure minus left ventricular end-diastolic pressure], left ventricular end-diastolic pressure [LVEDP], and the maximum positive and negative first derivatives of left ventricular pressure [+dP/dtmax and −dP/dtmax] are recorded. The heart is equilibrated for 20 min. After drug or vehicle is infused, the heart is subjected to 20 min of ischemia [coronary flow completely stopped] followed by 30 min of reperfusion. Coronary sinus flow as a reflection of coronary blood flow is also measured. This protocol leads to severe myocardial injury as measured by hemodynamic parameters.

[5] = 100 nM PQQ infused for 2 minutes prior to ischemia

O=C(O)c1cc(C(=O)O)c2c(n1)C(=O)C(=O)c1cc(C(=O)O)[nH]c1-2 [PQQ, Pyrroloquinoline quinone]
toxicity to cultured adult mouse cardiac myocytes [1]: highly toxic; also recorded: observed
cell death ([1]; normoxic conditions): 100%
proportion of viable cells (trypan blue exclusion) after hypoxia ([2]; 1 μM PQQ added 1 hour before severe hypoxia (0% oxygen for 2-3 hours)): significant increase
PQQ protection against hypoxia-induced cell death in presence of mitochondrial KATP channel inhibitor ([2]; 1 μM PQQ with 100 μM 5-hydroxydecanoic acid): not inhibited
PQQ protection in presence of mitochondrial KATP channel inhibitor (FIG. 2 legend) ([2]; 10 μM 5-hydroxydecanoic acid): not inhibited
hemodynamic response when given at onset of reperfusion (PQQ tre.) (isolated mouse heart [3]): equivalent to pretreatment
protection of cardiac myocytes against H2O2 oxidative stress (cardiac myocytes; PQQ between 10 nM and less than 10 μM added after two hours of H2O2): protective
protection of cardiac myocytes against H2O2 oxidative stress (cardiac myocytes; PQQ between 10 nM and less than 10 μM added before H2O2): protective
+dP/dtmax (isolated mouse heart [4]; [5]): track the LVDP results
left ventricular developed pressure (LVDP) (isolated mouse heart [4]; [5]): significant preservation; also recorded: preserves
left ventricular end-diastolic pressure (LVEDP) (isolated mouse heart [4]; [5]): preserves
−dP/dtmax (isolated mouse heart [4]; [5]): track the LVDP results
toxicity (FIG. 8) (isolated mouse heart [4]; 2 min pretreatment, 10 μM PQQ): toxicity occurs
hemodynamic response (FIG. 8) (isolated mouse heart [4]; 2 min pretreatment, PQQ between 10 nM and 1 μM): progressively favorable responses
infarct size (isolated mouse heart [4]; PQQ pretreatment at 10 μM): not reduced
infarct size (isolated mouse heart [4]; PQQ pretreatment between 10 nM and 1 μM): progressive reduction
coronary flow (isolated mouse heart [4]; PQQ pretreatment compared to control): significantly improved
